Results from US11873298B2, “Compounds and uses thereof” (JANSSEN PHARMACEUTICA NV, priority 2017, dated 2024).
Values joined by “and” are separate entries in the source; they are usually repeats but may differ in a detail not shown here. Identical values can stand only once.

Experiments:
[1] = system: yeast strains expressing the human α-synuclein; test: Yeast α-synuclein toxicity rescue assay (OD600 growth); conditions: 40 h; for EC50: read-out: α-Syn EC50; for Emax: read-out: α-Syn Emax
SCD1 = biological target: T1, SCD1 (Homo sapiens, UniProt O00767); test: Growth inhibition of humanized yeast strain expressing SCD1 as sole desaturase; type: cell-based; conditions: humanized yeast strain expressing SCD1
T1 construct: host or cells: S. cerevisiae ole1Δ strain (W303 pdr1Δ pdr3Δ background), plasmid pRS316 with TDH3 promoter and CYC1 terminator
T1 sequence (O00767 1-359): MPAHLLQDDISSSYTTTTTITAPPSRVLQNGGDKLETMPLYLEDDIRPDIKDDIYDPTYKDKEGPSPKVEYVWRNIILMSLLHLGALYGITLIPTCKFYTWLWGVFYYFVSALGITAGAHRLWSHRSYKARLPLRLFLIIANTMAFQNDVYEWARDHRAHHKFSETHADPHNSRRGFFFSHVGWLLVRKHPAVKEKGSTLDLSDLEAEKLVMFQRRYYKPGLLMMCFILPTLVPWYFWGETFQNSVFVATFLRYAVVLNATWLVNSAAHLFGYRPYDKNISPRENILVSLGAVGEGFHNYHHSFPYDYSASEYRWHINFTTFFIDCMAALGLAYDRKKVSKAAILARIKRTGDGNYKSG
How it was run: (§1)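 Measured by optical density at 600 nm, growth of desaturase-dependent yeast (OLE1 deleted; human SCD1, human SCD5 or yeast Ole1 supplied from plasmid) was scored after 24 h (Ole1) or 40 h (SCD1, SCD5) at 30° C. in galactose media lacking uracil with DMSO-delivered compound.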

Ole1 = biological target: T2, Ole1 (Saccharomyces cerevisiae, UniProt P21147); test: Growth inhibition of yeast strain expressing Ole1 as sole desaturase; type: cell-based; conditions: yeast strain expressing Ole1 as sole desaturase
T2 construct: expressed in transfected cells; host or cells: S. cerevisiae ole1Δ strain (W303 pdr1Δ pdr3Δ background), plasmid pRS316 with TDH3 promoter and CYC1 terminator
T2 sequence (P21147 1-510): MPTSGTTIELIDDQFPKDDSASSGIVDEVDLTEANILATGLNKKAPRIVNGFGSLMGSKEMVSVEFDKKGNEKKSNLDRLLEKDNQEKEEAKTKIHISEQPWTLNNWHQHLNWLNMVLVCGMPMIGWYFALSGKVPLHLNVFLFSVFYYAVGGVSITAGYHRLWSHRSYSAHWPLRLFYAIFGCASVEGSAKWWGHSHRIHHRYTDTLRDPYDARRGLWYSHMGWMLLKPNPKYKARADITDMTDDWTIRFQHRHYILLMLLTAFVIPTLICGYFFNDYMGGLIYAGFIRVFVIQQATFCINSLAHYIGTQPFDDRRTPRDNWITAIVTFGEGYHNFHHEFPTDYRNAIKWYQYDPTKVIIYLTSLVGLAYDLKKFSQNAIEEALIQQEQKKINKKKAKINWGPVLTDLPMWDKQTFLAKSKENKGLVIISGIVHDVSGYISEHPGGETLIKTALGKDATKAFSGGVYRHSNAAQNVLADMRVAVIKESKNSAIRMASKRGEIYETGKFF
How it was run: as §1

SCD5 = biological target: T3, SCD5 (Homo sapiens, UniProt Q86SK9); test: Growth inhibition of humanized yeast strain expressing SCD5 as sole desaturase; type: cell-based; conditions: humanized yeast strain expressing SCD5
T3 construct: host or cells: S. cerevisiae ole1Δ strain (W303 pdr1Δ pdr3Δ background), plasmid pRS316 with TDH3 promoter and CYC1 terminator
T3 sequence (Q86SK9 1-330): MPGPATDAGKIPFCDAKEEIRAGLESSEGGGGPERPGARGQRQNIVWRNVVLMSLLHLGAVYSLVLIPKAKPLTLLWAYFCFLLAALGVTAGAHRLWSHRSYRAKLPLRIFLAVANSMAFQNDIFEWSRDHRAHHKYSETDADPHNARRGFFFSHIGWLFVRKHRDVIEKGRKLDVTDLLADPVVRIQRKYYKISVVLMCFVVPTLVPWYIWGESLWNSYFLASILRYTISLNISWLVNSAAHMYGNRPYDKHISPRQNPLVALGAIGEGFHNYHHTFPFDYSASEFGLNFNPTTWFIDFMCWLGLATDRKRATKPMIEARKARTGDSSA
How it was run: as §1

Structure (SMILES) | EC50 [1] [µM] | Emax [1] [%] | IC50 (SCD1) [µM] | SCD1 % Max Inhibition (SCD1) | IC50 (Ole1) [µM] | OLE1 % Max Inhibition (Ole1) | IC50 (SCD5) [µM] | SCD5 % Max Inhibition (SCD5)
COc1ccc(-c2noc(C3CCN(C(=O)C4CC(=O)N(C5CCCCC5)C4)CC3)n2)cc1OC (centres unmarked) [Compound 125] | 16.7 | 200 | > 45 | 77.68% | > 45 | 92.36% | > 45 | 94.83%
Cc1nn(C)c2cc(-c3noc(C4CCN(C(=O)[C@@H]5CC(=O)N(c6ccccc6)C5)CC4)n3)ccc12 [compound 91] | 0.107 | 452 | > 45 | – | > 45 | – | > 45 | –
Cc1nn(C)c2nc(-c3noc(C4CCN(C(=O)CN5Cc6ccccc6C5=O)CC4)n3)ccc12 [Compound 146] | 1.94 | 516 | 37.8 | 60.81% | > 45 | 3.28% | > 45 | 25.62%
Cc1nn(C)c2cc(-c3noc(C4CCN(C(=O)CNC(=O)c5ccccn5)CC4)n3)ccc12 [Compound 153] | 0.02 | 271 | > 45 | 75.76% | > 45 | 2.75% | > 45 | 87.51%
O=C(NCC(=O)N1CCC(c2nc(-c3ccc4c(c3)OC(F)(F)O4)no2)CC1)c1ccccc1 [Compound 109] | 3.04 | 35 | > 45 | 84.36% | > 45 | 87.87% | > 45 | 89.75%
CCOc1ncc(-c2noc(C3CCN(C(=O)CN4Cc5ccccc5C4=O)CC3)n2)cc1OC [Compound 131] | 0.167 | 352 | > 45 | 96.48% | 25.8 | 39.81% | > 45 | 98.92%
CCOc1ccc(-c2noc(C3CCN(C(=O)C(C)N4Cc5ccccc5C4=O)CC3)n2)cc1OC (centres unmarked) [Compound 140] | 0.049 | 322 | > 45 | 77.37% and 75.00% | > 45 | 3.96% and 4.98% | – | 3.46% and 10.16%
COc1ccc(-c2nnc(C3CCN(C(=O)CNC(=O)c4ccccc4)CC3)o2)cc1OC [Compound 39] | 18.1 | 216 | > 45 | 77.01% | > 45 | 110.89% | > 45 | 79.10%
CCOc1ccc(-c2noc(C3CCN(C(=O)c4cc(-c5ccccc5)no4)CC3)n2)cc1OC [compound 92] | 2.5 | 187 | > 45 | – | > 45 | – | > 45 | –
CCOc1ccc(-c2noc(C3CCN(C(=O)CNC(=O)c4ccccc4)CC3)n2)cc1C#N [compound 101] | 1.18 | 122 | > 45 | – | > 45 | – | > 45 | –
COc1ccccc1-c1noc(C2CCN(C(=O)CNC(=O)c3ccc(C)c(C)c3)CC2)n1 [Compound 58] | 7.94 | 23 | > 45 | 101.47% | > 45 | 92.35% | > 45 | 66.93%
CCOc1cnc(-c2noc(C3CCN(C(=O)CNC(=O)c4ccccc4)CC3)n2)cc1OC [Compound 121] | 15.5 | 388 | > 45 | 94.06% | > 45 | 111.12% | > 45 | 98.38%
COc1ccc(-c2noc(C3CCN(C(=O)CNC(C)=O)CC3)n2)cc1OC [Compound 46] | 10.9 | 35 | > 45 | 70.27% | > 45 | 87.95% | > 45 | 72.35%
COc1ccc(-c2noc(C3CCN(C(=O)CNC(=O)c4ccccn4)CC3)n2)cc1OC [Compound 145] | 0.1 | 432 | > 45 | 78.31% | 15.8 | 51.17% | > 45 | 86.51%
Cc1noc2cc(-c3noc(C4CCN(C(=O)CNC(=O)c5ccccc5)CC4)n3)ccc12 [Compound 135] | 0.593 | 144 | > 45 | 92.42% | > 45 | 99.53% | > 45 | 91.64%
Cc1nn(C)c2nc(-c3noc(C4CCN(C(=O)CNC(=O)c5ccccc5)CC4)n3)ccc12 [Compound 115] | 0.887 | 326 | > 45 | 77.36% | > 45 | 101.68% | > 45 | 77.85%
COc1ccccc1-c1noc(C2CCN(C(=O)CNC(=O)c3ccccc3)CC2)n1 [compound 12] | 16.2 | 43 | > 45 | – | > 45 | – | > 45 | –
CCOc1ccc(-c2noc(C3CCN(C(=O)CN4Cc5ccccc5C4=O)CC3)n2)nc1OC [Compound 142] | 7.64 | 319 | > 45 | 80.83% | > 45 | 1.11% | > 45 | 26.00%
Cc1n[nH]c2cc(-c3noc(C4CCN(C(=O)CNC(=O)c5ccccc5)CC4)n3)ccc12 [compound 93] | 1.8 | 626 | > 45 | – | > 45 | – | > 45 | –
CCOc1cnc(-c2noc(C3CCN(C(=O)C4CC(=O)N(c5ccccc5)C4)CC3)n2)cc1OC (centres unmarked) [Compound 118] | 15.7 | 65 | > 45 | 93.37% | > 45 | 87.29% | 27.5 | 32.21%
Cc1nn(C)c2ccc(-c3noc(C4CCN(C(=O)CNC(=O)c5ccccc5)CC4)n3)cc12 [Compound 95] | 0.091 | 827 | 39.2 | – | > 45 | – | > 45 | –
Cc1nn(C)c2cc(-c3noc(C4CCN(C(=O)C(CO)N5Cc6ccccc6C5=O)CC4)n3)ccc12 (centres unmarked) [Compound 129] | 0.047 | 360 | > 45 | 75.60% | > 45 | 3.25% | > 45 | 93.05%
CCOc1ccc(-c2noc(C3CCN(C(=O)[C@H]4CC[C@H](c5ccccc5)N4)CC3)n2)cc1OC [Compound 119] | 20.9 | 61 | > 45 | 86.22% | > 45 | 111.86% | > 45 | 93.93%
Cc1nn(C)c2cc(-c3noc(C4CCN(C(=O)C5CC(=O)N(c6ccc(C#N)cc6)C5)CC4)n3)ccc12 (centres unmarked) [Compound 139] | 0.021 | 437 | > 45 | 87.50% | > 45 | 25.30% | > 45 | 75.11%
